Measurements from patent US20200131249A1, “NOVEL PROTEINS AND USE THEREOF” (EVOLVERITAS KFT., priority 2017, published 2020).
pIC50, pKi: −log10 of the molar value. Where no end group is shown, it is not given here.

Columns and labels:
thrombin = experiment: Thrombin time (TT) in human plasma
Procedure: (§1) Blood coagulation measurements using blood plasma taken from healthy human individuals were also performed. From the blood obtained through venipuncture and treated with sodium citrate (3.8% wt/vol) the plasma was isolated by centrifugation (2,000 g, 15 minutes, Jouan CR412 centrifuge).
(§2) The effect of the protein variants of the present invention on the blood coagulation process was tested in three standard assays, the thrombin time, testing any direct effects on thrombin; prothrombin time, testing any effects on the extrinsic pathway; and the activated partial thromboplastin time, testing any effects on the intrinsic pathway. Blood was collected from a healthy individual by vein puncture after informed consent. The blood was treated with sodium-citrate (3.8% w/v) and centrifuged. All three assays were performed on the automated instrument Sysmex CA-1500 (Sysmex) with Innovin reagent (Dale Behring, Marburg, Germany).
(§3) The inhibitors were applied in a fivefold serial dilution with the highest final concentration being 36 μM. This value is 3-4 orders of magnitudes higher than the KI values of the three protein variants of the present invention on human MASP-2. Even at the highest concentration the protein variants of the present invention have only little effect in the APTT test and no effect in the PT and TT tests.

extrinsic pathway = experiment: Prothrombin time (PT) in human plasma
Procedure: as §1, §2, §3

human MASP-3 = target: T1, human MASP-3 (Homo sapiens, UniProt P48740); experiment: KI determination on human MASP-3 catalytic fragment; type: biochemical; details: for pKi: catalytic fragment, Z-L-Lys-SBzl
T1 construct: catalytic enzyme fragments containing the three C-terminal domains: CCP1-CCP2-SP
T1 sequence (P48740 450-728 isoform P48740-2 limits assumed): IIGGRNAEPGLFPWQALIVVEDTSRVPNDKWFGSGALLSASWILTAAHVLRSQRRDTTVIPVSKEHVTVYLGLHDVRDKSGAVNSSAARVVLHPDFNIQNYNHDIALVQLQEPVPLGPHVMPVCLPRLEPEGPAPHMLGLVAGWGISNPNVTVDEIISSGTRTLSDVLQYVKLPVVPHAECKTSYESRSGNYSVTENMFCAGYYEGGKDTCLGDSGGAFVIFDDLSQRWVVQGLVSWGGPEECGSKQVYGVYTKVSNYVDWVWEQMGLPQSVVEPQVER
Procedure: (§4) The inhibition equilibrium constant (KI) of all four inhibitor variants produced was measured on human MASP-2 and rat MASP-2. Additionally, KI values were measured also on human MASP-1 and human MASP-3 to assess the specificity of the inhibitors amongst the MASP enzymes. KI values of the inhibitors on bovine trypsin, a pancreatic model enzyme was also measured.
(§5) For determining the KI of the inhibitors on MASP enzymes we used catalytic enzyme fragments containing the three C-terminal domains: CCP1-CCP2-SP. The synthetic substrate used in the measurements was Z-L-Lys-SBzl hydrochloride (Sigma, C3647), from which a 10 mM stock solution was prepared. The reactions were performed in a volume of 0.2 ml at room temperature in a buffer consisting of 20 mM HEPES; 145 mM NaCl; 5 mM CaCl2; 0.05% Triton-X100. The substrate cleaved by the enzyme entered into a reaction with the 5,5′-Dithiobis(2-nitrobenzoic acid) (DTNB, Ellman's reagent, Sigma—D8130) auxiliary substrate present in the solution in 2-fold excess to Z-L-Lys-SBzl. The release of the chromophore group created in this way was monitored via the change of absorbance at 410 nm using a BioTek Synergy H4 multimode microplate reader.
(§6) A dilution sequence was prepared from the individual inhibitors, the enzyme was added to it, and it was incubated for 2 hours at room temperature. The samples were transferred on a 96-well microtiter plate (Nunc 269620). The reactions were started by adding the mixture of the substrate and the auxiliary substrate to the samples. The concentration of the substrate and the length of the measuring period were chosen so that under the given conditions the enzyme should consume less than 10% of the substrate. In this case we used 250 μM Z-L-Lys-SBzl and 500 μM DTNB in the reactions. In the course of measuring, a method developed for the characterisation of tight-binding inhibitors was used (Empie, 1982). The concentration of the product was measured as a function of reaction time. The slope of the straight line determined for the initial phase of the reaction was normalised with the slope obtained for the uninhibited enzyme reaction, and this value was multiplied with the total enzyme concentration. As a result of this we obtained the free enzyme concentration, which was plotted as a function of the total inhibitor concentration and the Ki value was determined according to the following equation:
(§7) E=y=E0−(E0+x+Ki−(((E0+x+Ki)^2)−4*E0*x)^(½))/2,
(§8) where E is the free (uninhibited) enzyme concentration, and E0 is the total enzyme concentration. The stock concentration of the inhibitors was determined by titration with bovine trypsin of known concentration. The results were calculated as the average of parallel measurements.

intrinsic pathway = experiment: Activated partial thromboplastin time (APTT) in human plasma
Procedure: as §1, §2, §3

human MASP-1 = target: T2, human MASP-1 (Homo sapiens, UniProt P48740); experiment: KI determination on human MASP-1 catalytic fragment; type: biochemical; parameters: key to KI on human MASP-1: N.E.: not effective; details: for KI on human MASP-1: catalytic fragment, Z-L-Lys-SBzl
T2 construct: catalytic enzyme fragments containing the three C-terminal domains: CCP1-CCP2-SP
T2 sequence (P48740 449-699 limits assumed): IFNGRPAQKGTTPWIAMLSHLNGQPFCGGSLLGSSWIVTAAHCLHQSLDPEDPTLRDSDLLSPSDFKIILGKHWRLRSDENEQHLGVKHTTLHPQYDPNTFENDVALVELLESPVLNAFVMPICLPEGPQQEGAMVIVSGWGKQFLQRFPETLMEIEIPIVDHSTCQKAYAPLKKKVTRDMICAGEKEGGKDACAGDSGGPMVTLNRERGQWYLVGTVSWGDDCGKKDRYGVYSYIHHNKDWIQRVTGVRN
T2 sequence (P48740 298-448 partner limits assumed): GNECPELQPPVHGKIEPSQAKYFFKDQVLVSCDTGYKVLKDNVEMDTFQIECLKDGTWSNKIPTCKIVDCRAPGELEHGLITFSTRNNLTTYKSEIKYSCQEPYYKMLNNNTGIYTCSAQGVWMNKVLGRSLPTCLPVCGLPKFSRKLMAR
Procedure: as §4, §5, §6, §7, §8

rat MASP-2 = target: T3, rat MASP-2 (Rattus norvegicus, UniProt Q9JJS8); experiment: KI determination on rat MASP-2 catalytic fragment; type: biochemical; details: KI ratio
T3 construct: made in house
Procedure: as §4
For determining the KI of the inhibitors on MASP enzymes we used catalytic enzyme fragments containing the three C-terminal domains: CCP1-CCP2-SP. The synthetic substrate used in the measurements was Z-L-Lys-SBzl hydrochloride (Sigma, C3647), from which a 10 mM stock solution was prepared. […] The release of the chromophore group created in this way was monitored via the change of absorbance at 410 nm using a BioTek Synergy H4 multimode microplate reader.
A dilution sequence was prepared from the individual inhibitors, the enzyme was added to it, and it was incubated for 2 hours at room temperature. […] The concentration of the product was measured as a function of reaction time. The slope of the straight line determined for the initial phase of the reaction was normalised with the slope obtained for the uninhibited enzyme reaction, and this value was multiplied with the total enzyme concentration. […]

porcine trypsin = porcine trypsin (Sus scrofa, UniProt P00761); details: Petersen 1996; read-out: KI towards porcine trypsin; cited from earlier work
MASP-2 = MASP-2 (Homo sapiens, UniProt O00187); parameters: host or cells: diluted serum; details: Wouters 2011; Keizer 2015; read-out: IC50 of MASP-2 inhibition in solid phase ELISA assay with diluted serum; cited from earlier work
Sequence of MASP-2 (O00187 16-686, species assumed): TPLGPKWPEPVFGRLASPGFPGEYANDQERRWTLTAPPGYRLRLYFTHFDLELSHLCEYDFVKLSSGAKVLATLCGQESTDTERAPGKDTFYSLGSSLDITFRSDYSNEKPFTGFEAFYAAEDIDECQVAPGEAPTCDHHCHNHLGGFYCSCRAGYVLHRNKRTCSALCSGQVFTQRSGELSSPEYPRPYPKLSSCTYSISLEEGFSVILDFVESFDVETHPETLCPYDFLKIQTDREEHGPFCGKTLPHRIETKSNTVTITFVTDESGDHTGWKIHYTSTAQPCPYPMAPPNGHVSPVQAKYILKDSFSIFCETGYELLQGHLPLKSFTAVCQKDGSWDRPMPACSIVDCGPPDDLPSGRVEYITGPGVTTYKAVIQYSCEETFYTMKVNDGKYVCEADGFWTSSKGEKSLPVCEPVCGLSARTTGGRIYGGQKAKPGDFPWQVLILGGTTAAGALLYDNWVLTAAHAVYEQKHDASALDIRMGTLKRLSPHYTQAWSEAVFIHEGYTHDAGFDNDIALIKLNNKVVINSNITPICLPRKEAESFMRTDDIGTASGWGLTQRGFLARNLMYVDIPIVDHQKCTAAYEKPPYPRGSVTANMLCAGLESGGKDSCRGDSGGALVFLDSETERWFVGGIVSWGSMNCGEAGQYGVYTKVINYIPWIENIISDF

T3 sequence (Q9JJS8 with tags, fused parts or gaps L506P/I507H/R622A): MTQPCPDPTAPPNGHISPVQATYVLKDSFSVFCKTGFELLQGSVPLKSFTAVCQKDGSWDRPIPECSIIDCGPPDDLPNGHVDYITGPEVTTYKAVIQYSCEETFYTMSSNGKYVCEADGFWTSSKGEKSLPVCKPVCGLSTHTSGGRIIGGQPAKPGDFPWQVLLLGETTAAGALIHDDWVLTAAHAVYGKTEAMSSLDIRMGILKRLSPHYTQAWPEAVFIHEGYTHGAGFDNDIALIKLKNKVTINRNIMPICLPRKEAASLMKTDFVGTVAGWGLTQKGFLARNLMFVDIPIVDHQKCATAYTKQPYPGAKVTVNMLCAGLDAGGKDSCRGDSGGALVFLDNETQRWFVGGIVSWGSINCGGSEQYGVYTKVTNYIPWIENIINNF
Sequence of porcine trypsin (P00761 9-231): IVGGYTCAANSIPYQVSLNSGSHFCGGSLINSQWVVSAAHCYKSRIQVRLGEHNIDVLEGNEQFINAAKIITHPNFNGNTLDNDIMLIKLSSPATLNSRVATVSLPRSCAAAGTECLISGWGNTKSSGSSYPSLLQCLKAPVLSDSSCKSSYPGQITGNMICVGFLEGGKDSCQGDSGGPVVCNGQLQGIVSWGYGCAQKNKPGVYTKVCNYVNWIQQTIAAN

| Substance | TT (thrombin; inhibitor 0.1 μM) [s] | TT (thrombin; inhibitor 0.3 μM) [s] | TT (thrombin; inhibitor 1.4 μM) [s] | TT (thrombin; inhibitor 7.2 μM) [s] | TT (thrombin; inhibitor 36.0 μM) [s] | PT (extrinsic pathway; inhibitor 0.1 μM) [s] | PT (extrinsic pathway; inhibitor 0.3 μM) [s] | PT (extrinsic pathway; inhibitor 1.4 μM) [s] | PT (extrinsic pathway; inhibitor 7.2 μM) [s] | PT (extrinsic pathway; inhibitor 36.0 μM) [s] | pKi (human MASP-3) | APTT (intrinsic pathway; inhibitor 0.1 μM) [s] | APTT (intrinsic pathway; inhibitor 0.3 μM) [s] | APTT (intrinsic pathway; inhibitor 1.4 μM) [s] | APTT (intrinsic pathway; inhibitor 7.2 μM) [s] | APTT (intrinsic pathway; inhibitor 36.0 μM) [s] | KI on human MASP-1 (human MASP-1) | other results |
| --- | --- | --- | --- | --- | --- | --- | --- | --- | --- | --- | --- | --- | --- | --- | --- | --- | --- | --- |
| SEQ ID NO: 11: TFPI-D2 variant protein with inhibitor loop FCRAVKR (SEQ ID NO: 1) (KPDFCFLEEDPGFCRAVKRRYFYNNQTKQCERFKYGGCLGNMNNFETLEECKNICEDG; ends and bridges not checked; cysteine pairing not given here) | 16.5 | 16.6 | 16.7 | 16.4 | 16.0 | 10.7 | 10.8 | 11.0 | 11.0 | 11.4 | < 4.52 | 36.3 | 36.5 | 37.0 | 39.3 | 46.0 | N.E. | – |
| SEQ ID NO: 17: TFPI-D2 variant protein with inhibitor loop VCRAVKR (SEQ ID NO: 7) (KPDFCFLEEDPGVCRAVKRRYFYNNQTKQCERFKYGGCLGNMNNFETLEECKNICEDG; ends and bridges not checked; cysteine pairing not given here) | 16.6 | 16.3 | 16.4 | 16.4 | 16.0 | 10.8 | 10.8 | 10.8 | 10.9 | 11.4 | < 4.52 | 36.8 | 37.2 | 38.1 | 40.6 | 47.4 | N.E. | fold more potent than SGMI-2 on rat MASP-2 (rat MASP-2): about 3 fold |
| TFPI-D2 [reference compound] | – | – | – | – | – | – | – | – | – | – | < 4.52 | – | – | – | – | – | N.E. | pKi (porcine trypsin): 10.00; inhibition of MASP-3 (human MASP-3; result in words): No considerable inhibition; pIC50 (MASP-2): 5.00; inhibition of MASP-1 (human MASP-1; result in words): No considerable inhibition |
